Earlier results as cited in patent publication US20250127693A1, “Materials for Desensitization and Targeted Drug Delivery to Teeth and Gums” (South Dakota Board of Regents, priority 2023, published 2025).

Columns and labels:
mammalian cells = settings: prolonged exposures

C=CCc1ccc(O)c(OC)c1 [eugenol]
concentration at which eugenol inhibits proliferation of cancerous cells (cancerous cells): 82 µg/mL | concentration at which toxicity for mammalian cells starts (mammalian cells): 164 µg/mL
